Experimental data: PubChem BioAssay AID1259411 (Chemical Carcinogenesis Research Information System (CCRIS), 2018)
Activity calls are given as the source filed them. No rule for the calls is given here.

System: rodent carcinogenicity bioassays, tumor incidence
Test: CCRIS carcinogenicity studies
Method in brief: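 NCI-built, expert-reviewed records of carcinogenicity and related test outcomes (mutagenicity, tumor promotion/inhibition) compiled from published and report sources, historical span 1985-2011, not updated.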

With O=C(O)C(Br)Br as the compound, how does the carcinogen call (Species: Mouse, Strain/Sex: B6C3F1/Female, Route: Oral, Dose: 0, 50, 500, 1,000 mg/l in drinking water for 2 yr, Dose: 0, 50, 500, 1,000 mg/l in drinking water for 2 yr, Tumor Site: Type of Lesion: Liver: Hepatocellular adenoma (19/49; 26/50; 32/50; 35/49), Hepatocellular carcinoma (3/49, 3/50, 12/50, 8/49), Hepatoce, Tumor Site: Type of Lesion: Liver: Hepatocellular adenoma (19/49; 26/50; 32/50; 35/49), Hepatocellular carcinoma (3/49, 3/50, 12/50, 8/49), Hepatoce) read?
Its carcinogen call is “active; positive (ntp reports as clear evidence)”.

And the carcinogen call (Species: Mouse, Strain/Sex: B6C3F1/Male, Route: Oral, Dose: 0, 50, 500, 1,000 mg/l in drinking water for 2 yr, Dose: 0, 50, 500, 1,000 mg/l in drinking water for 2 yr, Tumor Site: Type of Lesion: Liver: Hepatocellular adenoma (18/49; 37/50; 42/50), Hepatocellular carcinoma (14/49, 9/50, 19/50, 26/50), Hepato, Tumor Site: Type of Lesion: Liver: Hepatocellular adenoma (18/49; 37/50; 42/50), Hepatocellular carcinoma (14/49, 9/50, 19/50, 26/50), Hepato)?
Its carcinogen call is “active; positive (ntp reports as clear evidence)”.

What about the carcinogen call (Species: Rat, Strain/Sex: F344/N/Female, Route: Oral, Dose: 0, 50, 500, 1000 mg/l in drinking water for 2 yr, Dose: 0, 50, 500, 1000 mg/l in drinking water for 2 yr, Tumor Site: Type of Lesion: All organs: Mononuclear cell leukemia (11/50, 13/50, 16/50, 22/50)) of the same compound?
The carcinogen call was “active; positive trend (not statistically significant) (ntp reports as some evidence)”.

And the carcinogen call (Species: Rat, Strain/Sex: F344/N/Male, Route: Oral, Dose: 0, 50, 500, 1000 mg/l in drinking water continuous for 2 yr, Dose: 0, 50, 500, 1000 mg/l in drinking water continuous for 2 yr, Tumor Site: Type of Lesion: All organs: Malignant mesothelioma (3/50, 1/50, 0/50, 10/50), Mononuclear cell leukemia (17/50, 31/50, 24/50, 13/50))?
The carcinogen call was “active; positive (malignant mesothelioma) (ntp reports as some evidence); mononuclear ce”.

Which carcinogen call (Species: RAT, Strain/Sex: WISTAR/FEMALE, Route: INHALATION, Dose: 0, 750, 1500, 3000 PPM 6 HR/D 5 D/WK AFTER 4 MO HIGH DOSE REDUCED TO 2150 PPM THEN 1500 PPM AT 6 MO AND 1000 PPM AT 12 M, Dose: 0, 750, 1500, 3000 PPM 6 HR/D 5 D/WK AFTER 4 MO HIGH DOSE REDUCED TO 2150 PPM THEN 1500 PPM AT 6 MO AND 1000 PPM AT 12 M, Tumor Site: Type of Lesion: NASAL CAVITY: TUMOR) does the source give for CC=O here?
The carcinogen call was “active; positive”.

And the carcinogen call (Species: RAT, Strain/Sex: WISTAR/MALE, Route: INHALATION, Dose: 0, 750, 1500, 3000 PPM 6 HR/D 5 D/WK AFTER 4 MO HIGH DOSE REDUCED TO 2150 PPM THEN 1500 PPM AT 6 MO AND 1000 PPM AT 12 M, Dose: 0, 750, 1500, 3000 PPM 6 HR/D 5 D/WK AFTER 4 MO HIGH DOSE REDUCED TO 2150 PPM THEN 1500 PPM AT 6 MO AND 1000 PPM AT 12 M, Tumor Site: Type of Lesion: NASAL CAVITY: TUMOR)?
Its carcinogen call is “active; positive”.

C[C@]12CC[C@H]3C(=CCc4cc(OS(=O)(=O)O)ccc43)[C@@H]1CCC2=O was tested. Which carcinogen call (Species: HAMSTER, Strain/Sex: SYRIAN/MALE, Route: SUBCUTANEOUS IMPLANT, Dose: 0, 20 MG IN PELLETS IMPLANTED EVERY 2.5 MO FOR 9 MO (STUDY DURATION: 9 MO), Tumor Site: Type of Lesion: KIDNEY: TUMOR) did it give?
Its carcinogen call is “active; positive”.

For CC(=O)[O-].CC(=O)[O-].[OH-].[OH-].[OH-].[OH-].[Pb+2].[Pb+2].[Pb+2], which carcinogen call (Species: MOUSE, Strain/Sex: STRAIN-A/MALE,FEMALE, Route: INTRAPERITONEAL, Dose: 30, 75, 150 MG/KG 3/WK FOR 5 WK, Dose: 30, 75, 150 MG/KG 3/WK FOR 5 WK, Tumor Site: Type of Lesion: LUNG: ADENOMA) is on record?
The carcinogen call was “active; positive”.

What about the carcinogen call (Species: MOUSE, Strain/Sex: SWISS/MALE, Route: ORAL, Dose: 0.1% IN DIET FOR TWO YR, Tumor Site: Type of Lesion: KIDNEY: ADENOMA, CARCINOMA) of the same compound?
Its carcinogen call is “active; positive”.

And the carcinogen call (Species: RAT, Strain/Sex: SPRAGUE-DAWLEY/MALE, Route: ORAL, Dose: 1% IN DIET, Tumor Site: Type of Lesion: KIDNEY: ADENOMA, CARCINOMA, BRAIN: GLIOMA)?
The carcinogen call was “active; positive”.

What about the carcinogen call (Species: RAT, Strain/Sex: WISTAR/MALE,FEMALE, Route: ORAL, Dose: 0.1, 1.0% IN DIET FOR UP TO 29 MO, Tumor Site: Type of Lesion: KIDNEY: CARCINOMA) of the same compound?
Its carcinogen call is “active; positive”.

Which results are given for Cc1cc(N)ccc1N?
carcinogen call (Species: MOUSE, Strain/Sex: B6C3F1/FEMALE, Route: ORAL, Dose: 0, 0.06, 0.1% OF DIET, TWA, Dose: 0, 0.06, 0.1% OF DIET, TWA): inactive; negative; carcinogen call (Species: MOUSE, Strain/Sex: B6C3F1/MALE, Route: ORAL, Dose: 0, 0.06, 0.1% OF DIET, TWA, Dose: 0, 0.06, 0.1% OF DIET, TWA): inactive; negative; carcinogen call (Species: RAT, Strain/Sex: F344/FEMALE, Route: ORAL, Dose: 0, 0.06, 0.2% OF DIET, TWA, Dose: 0, 0.06, 0.2% OF DIET, TWA): inactive; negative; carcinogen call (Species: RAT, Strain/Sex: F344/MALE, Route: ORAL, Dose: 0, 0.06, 0.2% OF DIET, TWA, Dose: 0, 0.06, 0.2% OF DIET, TWA): inactive; negative

For [O-]/[N+](=N\O)c1ccccc1, which carcinogen call (Species: MOUSE, Strain/Sex: B6C3F1/FEMALE, Route: ORAL, Dose: 0, 0.2, 0.4% TWA, IN DIET FOR 78 WK (STUDY DURATION: 95-98 WK), Dose: 0, 0.2, 0.4% TWA, IN DIET FOR 78 WK (STUDY DURATION: 95-98 WK), Tumor Site: Type of Lesion: CIRCULATORY SYSTEM: HEMANGIOSARCOMA OR HEMANGIOMA, LIVER: HEPATOCELLULAR CARCINOMA, HEPATOCELLULAR ADENOMA OR CARCINOMA;, Tumor Site: Type of Lesion: CIRCULATORY SYSTEM: HEMANGIOSARCOMA OR HEMANGIOMA, LIVER: HEPATOCELLULAR CARCINOMA, HEPATOCELLULAR ADENOMA OR CARCINOMA) is on record?
Its carcinogen call is “active; positive”.

And the carcinogen call (Species: MOUSE, Strain/Sex: B6C3F1/MALE, Route: ORAL, Dose: 0, 0.2, 0.4% TWA, IN DIET FOR 78 WK (STUDY DURATION: 95-98 WK), Dose: 0, 0.2, 0.4% TWA, IN DIET FOR 78 WK (STUDY DURATION: 95-98 WK), Tumor Site: Type of Lesion: CIRCULATORY SYSTEM: HEMANGIOSARCOMA)?
Its carcinogen call is “active; positive”.

And the carcinogen call (Species: RAT, Strain/Sex: F344/FEMALE, Route: ORAL, Dose: 0, 0.15, 0.30% IN DIET FOR 78 WK (STUDY DURATION: 106-110 WK), Dose: 0, 0.15, 0.30% IN DIET FOR 78 WK (STUDY DURATION: 106-110 WK), Tumor Site: Type of Lesion: CIRCULATORY SYSTEM: HEMANGIOSARCOMA, LIVER: HEPATOCELLULAR CARCINOMA, HEPATOCELLULAR CARCINOMA OR NEOPLASTIC NODULE, STO, Tumor Site: Type of Lesion: CIRCULATORY SYSTEM: HEMANGIOSARCOMA, LIVER: HEPATOCELLULAR CARCINOMA, HEPATOCELLULAR CARCINOMA OR NEOPLASTIC NODULE, STO)?
Its carcinogen call is “active; positive”.

And the carcinogen call (Species: RAT, Strain/Sex: F344/MALE, Route: ORAL, Dose: 0, 0.15, 0.30% IN DIET FOR 78 WK (STUDY DURATION: 97-110 WK), Dose: 0, 0.15, 0.30% IN DIET FOR 78 WK (STUDY DURATION: 97-110 WK), Tumor Site: Type of Lesion: CIRCULATORY SYSTEM: HEMANGIOSARCOMA, LIVER: HEPATOCELLULAR CARCINOMA OR NEOPLASTIC NODULE, STOMACH: SQUAMOUS CELL CARCIN, Tumor Site: Type of Lesion: CIRCULATORY SYSTEM: HEMANGIOSARCOMA, LIVER: HEPATOCELLULAR CARCINOMA OR NEOPLASTIC NODULE, STOMACH: SQUAMOUS CELL CARCIN)?
The carcinogen call was “active; positive”.

Which carcinogen call (Species: MOUSE, Strain/Sex: B6C3F1/FEMALE, Route: GAVAGE, Dose: 0, 125, 250 MG/KG IN AQ SOLN, Dose: 0, 125, 250 MG/KG IN AQ SOLN) does the source give for ClCc1ccccn1 here?
The carcinogen call was “inactive; negative”.

What about the carcinogen call (Species: MOUSE, Strain/Sex: B6C3F1/MALE, Route: GAVAGE, Dose: 0, 125, 250 MG/KG IN AQ SOLN, Dose: 0, 125, 250 MG/KG IN AQ SOLN) of the same compound?
The carcinogen call was “inactive; negative”.

What about the carcinogen call (Species: RAT, Strain/Sex: F344/FEMALE, Route: GAVAGE, Dose: 0, 75, 150 MG/KG IN AQ SOLN, Dose: 0, 75, 150 MG/KG IN AQ SOLN) of the same compound?
The carcinogen call was “inactive; negative”.

What about the carcinogen call (Species: RAT, Strain/Sex: F344/MALE, Route: GAVAGE, Dose: 0, 75, 150 MG/KG IN AQ SOLN, Dose: 0, 75, 150 MG/KG IN AQ SOLN) of the same compound?
The carcinogen call was “inactive; negative”.

With CCc1cc2ccccc2c2ccc3c(c12)[C@@H]1O[C@@H]1[C@H](O)[C@H]3O as the compound, how does the carcinogen call (Species: MOUSE, Strain/Sex: ICR/FEMALE, Route: INTRAPERITONEAL, Dose: 0, 8 NMOL IN 5 µL DMSO ON D 1, 16 NMOL IN 10 µL ON D 8 AND 32 NMOL IN 20 µL ON D 15 OF LIFE (STUDY DURATION: 35 WK)) read?
Its carcinogen call is “inactive; negative”.

What about the carcinogen call (Species: MOUSE, Strain/Sex: ICR/MALE, Route: INTRAPERITONEAL, Dose: 0, 8 NMOL IN 5 µL DMSO ON D 1, 16 NMOL IN 10 µL ON D 8 AND 32 NMOL IN 20 µL ON D 15 OF LIFE (STUDY DURATION: 35 WK)) of the same compound?
The carcinogen call was “inactive; negative”.

With CC(O)CN(C)c1ccc(NN)nn1 (stereo unspecified) as the compound, how does the carcinogen call (Species: MOUSE, Strain/Sex: B6C3F1/MALE,FEMALE, Route: ORAL, Dose: 100, 200, 400 PPM IN DRINKING WATER FOR 80 WK, Dose: 100, 200, 400 PPM IN DRINKING WATER FOR 80 WK) read?
Its carcinogen call is “inactive; negative”.
